Laboratory results published in publication PMC4461206 (Acta Crystallographica Section D: Biological Crystallography, 2015).
Changes are numbered by the printed parent chain.

Assays:
[1] = molecular target: T1, AcdDPN7 (3-sulfinopropionyl-coenzyme A desulfinase) (Advenella mimigardefordensis, UniProt K4L7X3); experiment: X-ray crystal structure, […] A; type: binding; details: noncovalent, one per subunit, site shared by two monomers; pH 6.5
T1 construct: gene acd; His6-tagged, pET-23a::acdDPN7, E. coli BL21(DE3) pLysS; homotetramer 150-200 kDa, one FAD per subunit; residues 2-392 superimposed in the structure

[2] = molecular target: T1, AcdDPN7 (3-sulfinopropionyl-coenzyme A desulfinase); experiment: DTNB sulfite-release assay, […] nm; type: biochemical; details: 50 mM Tris-HCl pH 7.4, 30 C, 0.2 mM DTNB, 0.1 mM 3SP-CoA, with or without O2
[3] = molecular target: T1, AcdDPN7 (3-sulfinopropionyl-coenzyme A desulfinase); experiment: X-ray crystal structure, […] A; type: binding; details: co-crystallized and soaked with succinyl-CoA, which was hydrolysed; only CoA seen in the active site (monomers A, B, D, E, F), occupancy 0.43-0.59; pH 6.5
[4] = molecular target: the molecule itself; experiment: crystal structure; apo enzyme at 1.89 Å (two monomers in the asymmetric unit) and complex with CoA at 2.30 Å (six monomers, three dimers); 0.1 M Bis-tris pH 6.5, PEG 3350; 100 K
[5] = molecular target: the molecule itself; experiment: SEC; wild-type Acd_(DPN7) and Acd_(DPN7_R84K) run side by side; conditions not told for this run

Molecule: Cc1cc2nc3c(=O)[nH]c(=O)nc-3n(C[C@H](O)[C@H](O)[C@H](O)COP(=O)(O)OP(=O)(O)OC[C@H]3O[C@@H](n4cnc5c(N)ncnc54)[C@H](O)[C@@H]3O)c2cc1C [FAD]
- X-ray crystal structure, 1.89 A [1]: AcdDPN7 is a tetramer and each monomer has one FAD noncovalently bound to the polypeptide

Molecule: CC(C)(COP(=O)(O)OP(=O)(O)OC[C@H]1O[C@@H](n2cnc3c(N)ncnc32)[C@H](O)[C@@H]1OP(=O)(O)O)[C@@H](O)C(=O)NCCC(=O)NCCSC(=O)CCS(=O)O [3SP-CoA]
- DTNB sulfite-release assay, 412 nm [2]: AcdDPN7 showed no significant difference in reaction velocity in the presence or absence of O2

Molecule: CC(C)(COP(=O)(O)OP(=O)(O)OC[C@H]1O[C@@H](n2cnc3c(N)ncnc32)[C@H](O)[C@@H]1OP(=O)(O)O)[C@@H](O)C(=O)NCCC(=O)NCCS [CoA]
- X-ray crystal structure, 2.30 A [3]: In the active sites of AcdDPN7 monomers A, B, D, E and F only the CoA group

B1: 3-Sulfinopropionyl-coenzyme A (3SP-CoA) desulfinase from Advenella mimigardefordensis DPN7T (enzyme)
chain: MYELTPEQRTLQTQARELAQSVFASTAVQTDLTEQYPWDNVAQLRDAGFMGMMLPTSVGGRGLSTLDTVIVIEEMAKACATMGRITVDSNLGAIGAITKYGSEEQIKLAADLVLAGDKPAICISEPNAGSAASEMTTRADKNGDHYILNGEKYWITGGGVSKLHLIFARVFDDGVEQGIGAFITVLDDHGPEGLKVGRRLYAMGVRGIPETHLEFHDLKIHKSMMITFPDGLKRGFAALMSAYNAQRVGAGAVALGIAQCAFEEGVAYLKRREQFGRPLAEFQGLQWMVADMSVQLEAARLMLRSAAVSGETFPDINKAAQAKIFAAETANKVTNDALQFFGSSGYGRHNPMERHVRDARMFTIAGGTAQILRTQVASKILDMKLPQTRDGYLKAAQNSKR
- stoichiometry N [4]: 4

B2: Acd_(DPN7_R84K) (enzyme)
chain: B1 chain with R84K
- stoichiometry N [5]: 4
